In patent US11090313B2, “Methods for inhibiting muscle atrophy” (UNIVERSITY OF IOWA RESEARCH FOUNDATION, priority 2010, dated 2021):
Entries after “also recorded” stand apart in the source; their conditions may differ.

Tests used:
Format in all cases: in vivo, mouse
C57BL/6 mice [1] = assay: Denervation-induced skeletal muscle atrophy model
C57BL/6 mice [2] = assay: Fasting-induced muscle atrophy in mice (i.p. dosing, 24 h fast)
Procedure: The mice were then fasted, and after 12 hours of fasting, the mice received a second dose of the compound or vehicle. After 24 hours of fasting, the blood glucose was measured and muscles were harvested. The data shown in FIGS. 6C-6H are means±SEM from ≤16 mice per condition. […] The effects of metformin and ursolic acid on fasting-induced muscle atrophy were also examined, i.e. the effect of 24 h fast (relative to ad lib feeding) on wet weight of lower hindlimb skeletal muscle (bilateral tibialis anterior (“TA” muscle), gastrocnemius, and soleus; see FIGS. 6E-6G). […] In FIGS. 6E-6H, each data point represents one mouse and the horizontal bars denote the means. In FIGS. 6C-6H, P-values were determined using unpaired t-tests.
Mice were then fasted, and after 12 hours of fasting, mice received a second dose of ursolic acid, oleanolic acid, or vehicle. After 24 hours of fasting, lower hindlimb skeletal muscles and liver were harvested and weighed.
To test this, food was withdrawn from mice, and then vehicle, ursolic acid (200 mg/kg) or tomatidine (50 mg/kg) were administered by i.p. injection. Twelve hours later, mice received another i.p. injection of vehicle or the same dose of ursolic acid or tomatidine. Twelve hours later, skeletal muscles were harvested and weighed. […] We next used the same protocol to compare the effects of vehicle (corn oil) and tomatidine (5, 15 and 50 mg/kg).

[3] = test system: extensor digitorum longus and peroneus muscles; assay: Ex vivo specific tetanic force of muscles from mice fed ursolic acid
Source text: Briefly, six-week old male C57BL/6 mice were provided either standard diet or diet containing 0.27% ursolic acid for 16 weeks before being euthanized. The lower hindlimb was removed (by transsecting the upper hindlimb mid-way through the femur), and placed in Krebs solution aerated with 95% 02 and 5% C02. The gastrocnemius, soleus and tibialis anterior muscles, as well as the distal half of the tibia and fibula were then removed and discarded, leaving the extensor digitorum longus and peroneus muscles with their origins and insertions intact. A suture was placed through the proximal tendon and secured to the distal femur fragment. This ex vivo preparation was then mounted vertically in a water jacket bath (Aurora Scientific 1200A Intact Muscle Test System, filled with aerated Krebs solution) by attaching the suture to a servo-controlled lever (superiorly) and clamping the metatarsals (inferiorly). Passive muscle force was adjusted to a baseline of 1 g, and then muscles were stimulated with supramaximal voltage (80 V) at 100 Hz. The mean time from euthanasia to maximal force measurements was 10 min. After force measurements, muscles were removed and weighed in order to calculate specific titanic force. […] Data are means±SEM from 5-6 mice per diet. P-values were determined with a t-test.

mice = assay: Immobilization-induced skeletal muscle atrophy model (stapled tibialis anterior); conditions: i.p. twice daily
Procedure: To test this, a mouse model of immobilization-induced skeletal muscle atrophy was used: mice were administered vehicle (corn oil) or varying doses of ursolic acid (positive control) or betulinic acid via intraperitoneal injection twice a day for two days. One tibialis anterior (TA) muscle was immobilized with a surgical staple, leaving the contralateral mobile TA as an intra-subject control. The vehicle or the same dose of ursolic acid or betulinic acid was continuously administered via i.p. injection twice daily for six days before comparing weights of the immobile and mobile TAs.
To test this, mice were administered vehicle (corn oil), ursolic acid (200 mg/kg), naringenin (200 mg/kg), or the combination of ursolic acid and naringenin (each at 200 mg/kg) via i.p injection twice a day for two days. One tibialis anterior (TA) muscle was immobilized with a surgical staple, leaving the contralateral mobile TA as an intrasubject control. Vehicle or the same doses of ursolic acid and/or naringenin was continuously administered via i.p. injection twice daily for six days before comparing weights of the immobile and mobile TAs.
To test this, mice were administered vehicle (corn oil) or tomatidine (50, 100 or 200 mg/kg) via i.p injection twice a day for two days. One tibialis anterior (TA) muscle was immobilized with a surgical staple, leaving the contralateral mobile TA as an intrasubject control. Vehicle or the same doses of tomatidine was administered via i.p. injection twice daily for six days before comparing weights of the immobile and mobile TAs. […] The same protocol was used to compare the effects of vehicle (corn oil) and tomatidine (5, 15 or 50 mg/kg) on immobilization-induced muscle atrophy.

[4] = ursolic acid 200 mg/kg i.p. twice, 24 h fast, qPCR, normalized to vehicle
[5] = 0.27% ursolic acid diet 16 weeks vs standard diet

`C[C@H]1[C@H](C)CC[C@]2(C(=O)O)CC[C@]3(C)C(=CC[C@@H]4[C@@]5(C)CC[C@H](O)C(C)(C)[C@@H]5CC[C@]43C)[C@H]12` [ursolic acid] was tested, and the “denervated skeletal muscle fiber diameter (gastrocnemius and TA)” value (C57BL/6 mice [1]; ursolic acid 200 mg/kg i.p. twice daily 7 days) was “increase in the size of denervated skeletal muscle fiber diameter”, the “denervation-induced muscle loss (denervated/innervated lower hindlimb muscle weight)” value (C57BL/6 mice [1]; ursolic acid 200 mg/kg i.p. twice daily 7 days after sciatic nerve transsection) was “significantly decreased denervation-induced muscle loss” and the “skeletal muscle weight in fasted mice (fasting-induced muscle atrophy)” value (C57BL/6 mice [2]; i.p. at 0 and 12 h of 24 h fast, vs vehicle, mg/kg: ursolic acid 200, oleanolic acid 200, metformin 250, tomatidine 50, allantoin 2, tacrine 4, ungerine 2, hippeastrine 2, conessine 2) was “increased skeletal muscle weight; also recorded: increased muscle weight in fasted mice”. For the same compound, the fasting blood glucose (C57BL/6 mice [2]; mice, i.p. at 0 and 12 h of 24 h fast, mg/kg: metformin 250, ursolic acid 200, hippeastrine 2, conessine 2) was “significantly reduced fasting blood glucose”, the “increase of muscle weight in fasted mice” value (C57BL/6 mice [2]; ursolic acid 200 mg/kg i.p. twice, 24 h fast, bilateral TA, gastrocnemius and soleus wet weight) was 7±2% and the “MuRF1 mRNA levels in TA muscles of fasted mice” value (C57BL/6 mice [2]; [4]) was “reduced fasting levels”. The “atrogin-1 mRNA levels in TA muscles of fasted mice” value (C57BL/6 mice [2]; [4]) was “reduced fasting levels”, the maximal tetanic force [3, 5] was “did not differ between the two groups” and the “muscle weight (extensor digitorum longus and peroneus)” value [3, 5] was “did not differ between the two groups”. For the same compound, the “specific force generated by muscles ex vivo” value ([3]; 0.27% ursolic acid diet 16 weeks, 80 V, 100 Hz) was “increased the specific force generated by muscles ex vivo”, the “dose of maximal inhibition of immobilization-induced muscle atrophy” value (mice) was 200 mg/kg and the “immobilization-induced muscle atrophy (weights of immobile vs mobile TA)” value (mice; 2 days before and 6 days after immobilization, ursolic acid and betulinic acid varying doses, naringenin 200 mg/kg, tomatidine 5-200 mg/kg) was “reduced muscle atrophy in a dose-dependent manner; also recorded: reduces immobilization-induced skeletal muscle atrophy”.
